Experimental data published in paper PMC9325274, “In Vitro and In Silico Investigation of Diterpenoid Alkaloids Isolated from Delphinium chitralense” (Molecules, 2022).
Read-outs that look alike come from different tables or passages of the source.

Experiments:
[1] = target: T1, AChE (Electric-eel EC 3.1.1.7) (Electrophorus electricus, UniProt O42275); assay: biochemical
T1 construct: purchased Sigma-Aldrich (St. Louis, MO, USA)

[2] = target: T2, BChE (horse serum EC 3.1.1.8) (Equus caballus, UniProt P81908); assay: biochemical
T2 construct: purchased Sigma-Aldrich (St. Louis, MO, USA); host or cells: horse serum

[3] = read-out: AChE ± SEM (IC50); Electric-eel AChE; SEM of five assays
[4] = read-out: BChE ± SEM (IC50), SEM of five assays

T1 sequence (O42275 24-633): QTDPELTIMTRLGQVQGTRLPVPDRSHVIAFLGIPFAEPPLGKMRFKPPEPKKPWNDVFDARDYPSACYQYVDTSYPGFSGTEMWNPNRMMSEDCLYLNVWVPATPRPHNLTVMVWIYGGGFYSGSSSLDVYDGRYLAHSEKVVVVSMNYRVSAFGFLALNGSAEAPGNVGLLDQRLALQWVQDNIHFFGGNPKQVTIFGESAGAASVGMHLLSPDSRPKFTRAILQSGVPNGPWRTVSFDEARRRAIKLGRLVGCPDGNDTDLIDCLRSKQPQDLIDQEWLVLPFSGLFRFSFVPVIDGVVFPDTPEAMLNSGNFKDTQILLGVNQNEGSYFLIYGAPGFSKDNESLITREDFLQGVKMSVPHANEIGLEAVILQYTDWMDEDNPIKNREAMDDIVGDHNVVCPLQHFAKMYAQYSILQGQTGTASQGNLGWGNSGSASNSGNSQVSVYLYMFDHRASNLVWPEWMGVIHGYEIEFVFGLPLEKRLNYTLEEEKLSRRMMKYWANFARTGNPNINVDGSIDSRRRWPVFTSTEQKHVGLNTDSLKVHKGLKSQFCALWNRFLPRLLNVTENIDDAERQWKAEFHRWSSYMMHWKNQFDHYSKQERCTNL
T2 sequence (P81908 whole entry): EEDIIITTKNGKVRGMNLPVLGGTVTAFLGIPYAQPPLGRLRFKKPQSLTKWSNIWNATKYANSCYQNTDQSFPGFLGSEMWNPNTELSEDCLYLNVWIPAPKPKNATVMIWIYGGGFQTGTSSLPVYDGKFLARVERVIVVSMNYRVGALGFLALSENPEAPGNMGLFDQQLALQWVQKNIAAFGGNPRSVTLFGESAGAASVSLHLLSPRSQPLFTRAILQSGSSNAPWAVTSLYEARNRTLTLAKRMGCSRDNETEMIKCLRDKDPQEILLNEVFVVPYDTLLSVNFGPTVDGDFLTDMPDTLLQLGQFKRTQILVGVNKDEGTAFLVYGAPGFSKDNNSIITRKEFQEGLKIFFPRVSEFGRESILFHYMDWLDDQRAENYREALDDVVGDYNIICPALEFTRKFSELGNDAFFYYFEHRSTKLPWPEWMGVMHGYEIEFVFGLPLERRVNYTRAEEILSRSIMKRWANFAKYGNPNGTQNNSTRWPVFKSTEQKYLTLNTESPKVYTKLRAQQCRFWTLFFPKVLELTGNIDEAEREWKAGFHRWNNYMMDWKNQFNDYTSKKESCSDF

Row | SMILES | IC50 ([1]; Electric-eel AChE; SEM of five assays; read-out: AChE ± SEM (IC50)) | Type of Inhibition ([1]; stated for inhibition of AChE and BChE; listed as Chitralinine A) | IC50 ([2]; SEM of five assays, read-out: BChE ± SEM (IC50)) | IC50 [1, 3] | Type of Inhibition ([1]; stated for inhibition of AChE and BChE; listed as Chitralinine B) | IC50 [2, 4] | Type of Inhibition ([1]; stated for inhibition of AChE and BChE; listed as Chitralinine-C)
1 | C=C1CC23CC(=O)C4C5(C)CC(O)C(O)C46C(C2C(=O)C1CC36O)N(C)C5 (stereo not drawn) [Compound 1, 9β-hydroxy hetidine] | 13.9 ± 0.35 µM | Competitive | 28.2 ± 0.92 µM | – | – | – | –
2 | C=C1CC23CC(=O)C4C56C(C2C(=O)C1(O)C(O)C35O)N(C)C(O)[C@]4(C)CC(O)[C@@H]6O (stereo partly drawn) [Compound 2, 9,11,12,19β- tetrahydoxy hetidine] | – | – | – | 11.64 ± 0.08 µM | Competitive | 24.3 ± 0.33 µM | –
3 | C=C1CC23CC(=O)C4C5(C)CC(O)C(O)C46C(C2CC1(O)C(O)C36O)N(C)C5O (stereo not drawn) [Compound 3, 1α, 2, 9,11,12,19β-hexahydoxy atisinone] | – | – | – | 12.1 ± 0.82 µM | – | 26.35 ± 0.06 µM | Competitive
